This is an account of results in PMC3356272, “An Analogue of the Antibiotic Teicoplanin Prevents Flavivirus Entry In Vitro” (PLoS ONE, 2012).

Data set [1] has as its system DENV-2 NGC. Format: cell-based, dengue virus.
Data set [2] concerns YFV-17D. Type of data set: cell-based, yellow fever virus.
In data set [3] the test system is dengue reporter virus. Type of data set: cell-based.
The test system of data set [4] is YFV-17D. Type of data set: cell-based, yellow fever virus. The source holds these as a separate data set.
In data set [5] the test system is DENV subgenomic replicon. Description: DENV replicon system. Type of data set: cell-based, dengue virus. As to conditions: BHK-Rep-Pac-LUC cells, luciferase at 72 hours. (Replicon systems follow genome replication, usually without infectious particles.)
Data set [6] has as its system DiD-labeled DENV. Description: Fusion assay with DiD-labeled DENV. Format: cell-based, dengue virus. As to conditions: BS-C-1 cells; for membrane fusion activity of DENV, reference controls: NH4Cl 50 mM, chlorpromazine 60 µM.
Data set [7] has as its system uninfected host cell cultures. Description: Cell counting with a Coulter Counter. Format: cell-based. Particulars: 50 and 100 µM, cells counted with a Coulter Counter.
Data set [8] deals with Vero-B cells.
The test system of data set [9] is P388D1 cells.
For data set [10], the system named is DENV-2. Description: Virucidal assay. Particulars: 50 µM, 1 h, 37°C, with or without RNase A.
For data set [11], the system named is DENV-2 NGC. Description: CPE-reduction assay. As to conditions: 25 and 12.5 µM, Vero-B cells, day 8 p.i.

On to `CC(C)(C)OC(=O)NC1C(=O)NC2Cc3ccc(c(Cl)c3)Oc3cc4cc(c3O)Oc3ccc(cc3Cl)C(O)C3NC(=O)C(NC(=O)C4NC(=O)C(NC2=O)c2cc(O)cc(c2)Oc2cc1ccc2O)c1ccc(O)c(c1)-c1c(O)cc(O)cc1C(C(=O)NC1C2CC4CC(C2)CC1C4)NC3=O` (centres unmarked) [LCTA-949], for which, in [1], the “DENV E protein expression” value was “completely inhibited”. Besides, in data set [2], the “YFV NS1 protein expression” value is “completely inhibited”. For the same compound, in data set [3], the “inhibition of DENV infection” value was “failed to efficiently inhibit”; the “inhibition of viral replication and viral antigen expression” value is “nearly complete inhibition”. In [4], the “inhibition of viral replication” value is recorded as “nearly complete inhibition” and the “protective activity against YFV” value is “most of the protective activity of LCTA-949 was already lost”. Also, the “replication of the DENV subgenomic replicon” value in [5] is recorded as “did not inhibit”. Besides, the “membrane fusion activity of DENV” value in data set [6] (20 min p.i. at 37°C, 6.25-25.0 µM) is “markedly impaired”. Further, the cytostatic effects result in data set [7] is “some cytostatic effects”. Also, in data set [8], the cytotoxicity result is reported as “did not prove cytotoxic” and the “viability of uninfected host cell cultures” value is given as “did not reduce viability”. In addition, the cytotoxic concentration (CC50) in data set [8] (green monkey) was more than 100 µM. Besides, the cytotoxic effects result in data set [9] is “No cytotoxic effects”. Further, in data set [10], the direct virucidal activity result is listed as “does not destroy the viral particle”. In data set [11], the “DENV-2-induced CPE formation” value is given as “completely inhibited”.

With `Cl.N` [ammonium chloride], the “membrane fusion activity of DENV, reference controls” value in data set [6] is recorded as “efficiently reduced”.

For the compound `CN(C)CCCN1c2ccccc2Sc2ccc(Cl)cc21` [chlorpromazine], the “membrane fusion activity of DENV, reference controls” value in [6] is reported as “efficiently reduced”.

The CC50 is the concentration giving 50% cytotoxicity.
